Laboratory results: patent US3951987A, “Tetrahydropyridine derivatives” (priority 1975, dated 1976)

How the values were obtained:
rats = assay: Standard "open field" test (50 percent decrease in the number of diameter crossings vs untreated controls); format: in vivo; settings: Rattus norvegicus, po, read-out: ED50 (dosage which caused a 50 percent decrease in the number of diameter crossings)
Source text: The dosage which caused a 50 percent decrease (in comparison to the untreated controls) in the number of diameter crossings is expressed as the ED50.

Toxicity (mouse), p.o. = settings: in vivo, po

Row | Compound | ED50 (rats) [mg/kg] | LD50 (Toxicity (mouse), p.o.) [mg/kg]
1 | CCC(=O)Nc1ccc(OCCN2CC=C(c3ccc(F)cc3)CC2)cc1 [4'-[2-[4-(p-fluoro-phenyl)-3,6-dihydro-1(2H)-pyridyl)-ethoxy]-propionanilide] | 0.6 | 150 to 300
2 | CC(=O)Nc1ccc(OCCN2CC=C(c3ccc(F)cc3)CC2)cc1 [4'-{2-[4-(p-fluorophenyl)-3,6-dihydro-1(2H)-pyridyl]ethoxy}acetanilide] | 0.6 | 250 to 500
3 | Nc1ccc(OCCN2CC=C(c3ccc(F)cc3)CC2)cc1 [p-[2-[4-(p-fluoro-phenyl)-3,6-dihydro-1(2H)-pyridyl]-ethoxy]-aniline] | 0.6 | 250 to 500
